Laboratory results reported in patent US4791200A, “2-substituted-4-aryl-substituted thiazoles” (Ortho Pharmaceutical Corporation, priority 1987, dated 1988).
Like-named read-outs stand apart in the source and are kept apart here.

Columns and labels:
parietal cells = assay: Isolated Parietal Cell Assay (14C-aminopyrine accumulation, histamine or dibutyryl cAMP stimulated); assay type: cell-based, rabbit; settings: Oryctolagus cuniculus
Experimental: The isolated parietal cell assay was conducted using the procedures of Batzri, S. et al., Biochemica et Biophysica Acta 508, 328 (1978) and Soll, A. H. Am. J. Physiol. 238, G366 (1980). Basically, parietal cells were isolated from the fundic mucosa of rabbit stomachs by a four-stage collagenase digestion process. The supernatant fractions from the last two stages of this process contain the individual parietal cells. This cell suspension was centrifuged and reconstituted in a modified Hank's buffer to contain 1-2×10^6 cells/ml. […] This accumulation was stimulated by histamine and was blocked by H2 antagonists. The cells were incubated with 0.4-0.5×10^6 cpm ^14 C-AP, with various concentrations of histamine as a stimulant, 1×10^-5 M isobutylmethylxanthine, and the test compound added in a 20 μl volume of buffer or DMSO. The flasks were incubated in a shaking water bath at 37° C. for 20 minutes. Two aliquots were then taken from each flask and cell pellets were collected by centrifugation. The pellets were solubilized with Protosol (New England Nuclear) and radioactivity determined by liquid scintillation spectrometry. Data is presented as the IC50 vhist, the concentration of compound required to inhibit ^14 C-AP accumulation in the histamine stimulated parietal cell by 50%.
When dibutyryl cAMP was used to stimulate the cells instead of histamine, a similar inhibition of ^14 C-AP accumulation was measured and the data are presented as the IC50 vcAMP, the concentration required to inhibit ^14 C-AP accumulation in the cAMP stimulated parietal cell by 50%.

[1] = system: acid output (gastric secretion); assay: Gastric Secretion (pylorus ligation, modified Shay); assay type: in vivo, male Charles River Sprague Dawley derived rats; settings: i.d. or s.c., 4 hours after ligation; for % Acid Secreted at mpK: at 20 mpK
Experimental: The inhibitory activity of the compounds on acid output was tested using pylorus ligation in a modification of the procedure of Shay, H. et al., Gastroenterology 26, 906 (1954). Basically, male Charles River Sprague Dawley derived rats weighing 150-300 grams were deprived of food but not water for 18-24 hours prior to use. Water was withheld during the experiment, however. The rats were weighed, anesthetized with ether and the pylorus ligated according to the method of Shay et al., supra. Treatment or vehicle control was then administered intraduodenally (i.d.) or subcutaneously (s.c.). Rats were housed two/cage and sacrificed with CO2 four hours after ligation. The stomachs were removed, rinsed, and contents emptied into a graduated centrifuge tube. The tubes were centrifuged, the volume of gastric juice recorded, and any samples obviously contaminated by feces, food or blood were eliminated. A 1 ml aliquot of gastric juice was titrated with 0.1N NaOH to a pH of 7.0-7.4. The volume of gastric juice secreted, the acid concentration, and the product of the volume times the concentration, i.e., the total amount of acid secreted, were measured.

[2] = molecular target: T1, parietal cell H^+ K^+ ATPase (Oryctolagus cuniculus, UniProt P27112); assay: Inhibition of Parietal Cell H^+ K^+ ATPase; assay type: biochemical, New Zealand white rabbits; settings: read-out: % Inhibition at Concentration; for inhibition at 100 µM: at 10^-4 M
T1 construct: determined in fundic mucosa from New Zealand white rabbits which were homogenized; from tissue; host or cells: fundic mucosa of New Zealand white rabbits, homogenized; membrane protein
Experimental: The activity was measured in a 1 ml incubation volume containing 50 mM Tris pH 7.4, 2 mM MgCl2, 2 mM Na2 ATP, with or without 20 mM KCl and vehicle control (dimethylsulfoxide) or test compound added in a 0.02 ml volume. Typically, 20-50 μg membrane protein was added and the tubes were preincubated with test compound for 10 minutes at 37° C. Substrate, Na2 ATP, was then added and the tubes were incubated for another 15 minutes at 37° C. The reaction was stopped by the addition of 1 ml 14% trichloroacetic acid and the samples were centrifuged at 2,000 ×g for 10 minutes. The amount of inorganic phosphate present in an aliquot of supernatant was determined. H^+ K^+ ATPase activity was determined after correcting for the basal (Mg^++ only) enzyme activity present in the membrane preparation.

[3] = 20 min, histamine stimulated, 37° C., 20 minutes, read-out: IC50 vhist (inhibition of 14C-AP accumulation in the histamine stimulated parietal cell)
[4] = dibutyryl cAMP stimulated, read-out: IC50 vcAMP (inhibition of 14C-AP accumulation in the cAMP stimulated parietal cell)

T1 sequence (P27112 2-1035 limits assumed): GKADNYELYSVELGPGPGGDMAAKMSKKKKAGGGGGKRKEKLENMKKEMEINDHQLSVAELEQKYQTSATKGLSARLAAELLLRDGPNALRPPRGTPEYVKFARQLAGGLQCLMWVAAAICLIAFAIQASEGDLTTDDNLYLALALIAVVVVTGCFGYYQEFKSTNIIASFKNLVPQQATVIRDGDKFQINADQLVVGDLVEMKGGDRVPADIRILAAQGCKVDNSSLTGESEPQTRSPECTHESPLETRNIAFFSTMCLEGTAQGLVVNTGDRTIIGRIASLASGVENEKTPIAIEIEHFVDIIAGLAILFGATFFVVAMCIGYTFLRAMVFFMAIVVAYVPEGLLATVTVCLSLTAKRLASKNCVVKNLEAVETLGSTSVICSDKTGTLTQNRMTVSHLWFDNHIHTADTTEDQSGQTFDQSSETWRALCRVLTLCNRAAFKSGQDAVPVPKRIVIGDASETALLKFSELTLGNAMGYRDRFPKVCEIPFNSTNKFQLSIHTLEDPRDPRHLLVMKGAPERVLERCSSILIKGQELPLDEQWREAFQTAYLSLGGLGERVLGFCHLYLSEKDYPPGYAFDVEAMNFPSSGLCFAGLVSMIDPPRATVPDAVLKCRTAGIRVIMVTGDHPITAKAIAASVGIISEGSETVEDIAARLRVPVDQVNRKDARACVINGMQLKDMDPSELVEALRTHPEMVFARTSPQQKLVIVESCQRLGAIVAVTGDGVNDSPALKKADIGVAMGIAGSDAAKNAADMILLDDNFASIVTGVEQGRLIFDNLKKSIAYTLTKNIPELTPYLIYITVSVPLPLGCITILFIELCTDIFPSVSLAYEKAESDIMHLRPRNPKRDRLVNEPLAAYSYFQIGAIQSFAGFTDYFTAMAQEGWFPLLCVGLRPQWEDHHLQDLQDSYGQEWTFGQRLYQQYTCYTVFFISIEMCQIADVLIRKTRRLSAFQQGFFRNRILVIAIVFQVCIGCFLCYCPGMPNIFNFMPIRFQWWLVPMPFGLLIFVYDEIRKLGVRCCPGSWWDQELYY
T1 sequence (P18597 whole entry partner): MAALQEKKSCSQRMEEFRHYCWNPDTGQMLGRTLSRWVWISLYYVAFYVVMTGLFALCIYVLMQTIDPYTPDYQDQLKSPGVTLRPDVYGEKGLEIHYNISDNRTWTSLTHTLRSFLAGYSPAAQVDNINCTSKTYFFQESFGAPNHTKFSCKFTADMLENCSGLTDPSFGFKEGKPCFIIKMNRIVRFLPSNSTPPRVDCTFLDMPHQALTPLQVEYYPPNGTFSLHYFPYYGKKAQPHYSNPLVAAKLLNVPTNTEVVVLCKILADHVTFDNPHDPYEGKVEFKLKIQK

Row | IC50 (parietal cells; [3]) [nM] | inhibition at 100 µM [2] [%] | IC50 (parietal cells; [4]) [nM] | inhibition at 10.5 µM ([2]; at 10.5 μM) [%] | SMILES | response vs control in vivo at 40 mg/kg ([1]; Rattus norvegicus, at 40 mpK, read-out: % Acid Secreted at mpK) [%] | % Acid Secreted at mpK [1] [%]
1 | 10000 | 36 | – | – | c1ccc(-c2nc(-c3ccc(OCCCn4cncn4)cc3)cs2)cc1 [Example 24, 4-[4-(1,2,4-Triazol-1-yl)propoxyphenyl]-2-phenylthiazole] | 83 | –
2 | 340 | 5 | 240 | – | CCCCN(CCCC)CCCOc1ccc(-c2nc(-c3ccccc3)sc2CC)cc1 [Example 25, 5-Ethyl-4-(4-dibutylaminopropoxyphenyl)-2-phenylthiazole] | – | 8
3 | 300 | 23 | 290 | – | CCCCN(CCCC)CCCOc1ccc(-c2csc(-c3ccccc3)n2)cc1C [Example 26] | – | 64
4 | 320 | – | 290 | 50 | c1ccc(-c2nc(-c3cccc(OCCCn4ccnc4)c3)cs2)cc1 [Example 27] | – | 13
